Experimental data as given in US20160090383A1, “ANTIBACTERIAL PHTHALIDE DERIVATIVES” (priority 2013, published 2016).
≈ marks a conversion by molar mass, not a printed value.

Key:
Test in all cases: Bacterial growth minimal inhibitory concentration (microdilution, CLSI M7-A7)
Format in all cases: cell-based
[1] = test system: Streptococcus pneumonia ATTC49619; conditions: Streptococcus pneumoniae, ATTC49619; quinolone-sensitive strain; cation-adjusted Mueller-Hinton Broth; read-out: MIC for S. pneumonia ATTC49619
Procedure: (§1) Minimal Inhibitory Concentrations (MICs; […]) were determined in cation-adjusted Mueller-Hinton Broth by a microdilution method following the description given in “Methods for Dilution Antimicrobial Susceptibility Tests for Bacteria that Grow Aerobically”, Approved standard, 7th ed., Clinical and Laboratory Standards Institute (CLSI) Document M7-A7, Wayne, Pa., USA, 2006.

[2] = test system: Staphylococcus aureus ATCC29213; conditions: Staphylococcus aureus, ATCC29213; methicillin-sensitive and quinolone-sensitive strain; cation-adjusted Mueller-Hinton Broth; read-out: MIC for S. aureus ATCC29213
Procedure: as §1

[3] = test system: Enterococcus faecium A949; conditions: Enterococcus faecium, A949; multiply-resistant strain (quinolone-resistant and vancomycin-resistant); cation-adjusted Mueller-Hinton Broth; read-out: MIC for E. faecium A949
Procedure: as §1

[4] = test system: Staphylococcus aureus A798; conditions: Staphylococcus aureus, A798; multiply-resistant strain (quinolone-resistant and methicillin-resistant); cation-adjusted Mueller-Hinton Broth; read-out: MIC for S. aureus A798
Procedure: as §1

[5] = test system: Moraxella catarrhalis A894; conditions: Moraxella catarrhalis, A894; quinolone-sensitive strain; cation-adjusted Mueller-Hinton Broth
Procedure: as §1

| MIC [1] [mg/L] | MIC [2] [mg/L] | MIC [3] [mg/L] | MIC [4] [mg/L] | MIC [5] [mg/L] | SMILES |
| --- | --- | --- | --- | --- | --- |
| 0.5 (≈ 1.1 µM) | 0.031 (≈ 0.0679 µM) | 0.25 (≈ 0.548 µM) | 0.125 (≈ 0.274 µM) | 0.5 (≈ 1.1 µM) | COc1ccc2ncc(=O)n(CCNCCC3OC(=O)c4cc(-c5ccccc5)ccc43)c2n1 (racemic) [Example 2, rac-6-Methoxy-4-{2-[2-(3-oxo-5-phenyl-1,3-dihydro-isobenzofuran-1-yl)-ethylamino]-ethyl}-4H-pyrido[2,3-b]pyrazin-3-one] |
| 0.125 (≈ 0.282 µM) | 0.031 (≈ 0.0701 µM) | 0.25 (≈ 0.565 µM) | 0.125 (≈ 0.282 µM) | 1 (≈ 2.26 µM) | O=C1OC(CCNCCn2c(=O)ccc3ccc(F)cc32)c2ccc(-c3ccccc3)cc21 (racemic) [Example 3, rac-7-Fluoro-1-{2-[2-(3-oxo-5-phenyl-1,3-dihydro-isobenzofuran-1-yl)-ethylamino]-ethyl}-1H-quinolin-2-one] |
| 1 (≈ 2.19 µM) | 0.125 (≈ 0.274 µM) | 0.5 (≈ 1.1 µM) | 0.5 (≈ 1.1 µM) | 8 (≈ 17.5 µM) | O=C(CC1OC(=O)c2cc(-c3ccccc3)ccc21)NCCn1c(=O)ccc2ccc(F)cc21 (racemic) [Example 4, rac-N-[2-(7-Fluoro-2-oxo-2H-quinolin-1-yl)-ethyl]-2-(3-oxo-5-phenyl-1,3-dihydro-isobenzofuran-1-yl)-acetamide] |
| 0.5 (≈ 1.05 µM) | 0.063 (≈ 0.133 µM) | 0.25 (≈ 0.527 µM) | 0.25 (≈ 0.527 µM) | 1 (≈ 2.11 µM) | O=C(CC1OC(=O)c2cc(-c3cccc(F)c3)ccc21)NCCn1c(=O)ccc2ccc(F)cc21 (racemic) [Example 5, rac-N-[2-(7-Fluoro-2-oxo-2H-quinolin-1-yl)-ethyl]-2-[5-(3-fluoro-phenyl)-3-oxo-1,3-dihydro-isobenzofuran-1-yl]-acetamide] |
| 0.5 (≈ 1.05 µM) | 0.063 (≈ 0.133 µM) | 0.25 (≈ 0.527 µM) | 0.25 (≈ 0.527 µM) | 2 (≈ 4.22 µM) | O=C(CC1OC(=O)c2cc(-c3ccccc3F)ccc21)NCCn1c(=O)ccc2ccc(F)cc21 (racemic) [Example 6, rac-N-[2-(7-Fluoro-2-oxo-2H-quinolin-1-yl)-ethyl]-2-[5-(2-fluoro-phenyl)-3-oxo-1,3-dihydro-isobenzofuran-1-yl]acetamide] |
| 0.5 (≈ 1.02 µM) | 0.031 (≈ 0.063 µM) | 0.25 (≈ 0.508 µM) | 0.25 (≈ 0.508 µM) | 0.5 (≈ 1.02 µM) | O=C(CC1OC(=O)c2cc(-c3cccc(F)c3F)ccc21)NCCn1c(=O)ccc2ccc(F)cc21 (racemic) [Example 8, rac-2-[5-(2,3-Difluoro-phenyl)-3-oxo-1,3-dihydro-isobenzofuran-1-yl]-N-[2-(7-fluoro-2-oxo-2H-quinolin-1-yl)-ethyl]-acetamide] |
| 0.25 (≈ 0.508 µM) | 0.031 (≈ 0.063 µM) | 0.25 (≈ 0.508 µM) | 0.125 (≈ 0.254 µM) | 0.125 (≈ 0.254 µM) | O=C(CC1OC(=O)c2cc(-c3cc(F)ccc3F)ccc21)NCCn1c(=O)ccc2ccc(F)cc21 (racemic) [Example 9, rac-2-[5-(2,5-Difluoro-phenyl)-3-oxo-1,3-dihydro-isobenzofuran-1-yl]-N-[2-(7-fluoro-2-oxo-2H-quinolin-1-yl)-ethyl]-acetamide] |
| 4 (≈ 8.12 µM) | 0.5 (≈ 1.02 µM) | 2 (≈ 4.06 µM) | > 8 | > 8 | O=C(CC1OC(=O)c2cc(-c3ccc(F)c(F)c3)ccc21)NCCn1c(=O)ccc2ccc(F)cc21 (racemic) [Example 10, rac-2-[5-(3,4-Difluoro-phenyl)-3-oxo-1,3-dihydro-isobenzofuran-1-yl]-N-[2-(7-fluoro-2-oxo-2H-quinolin-1-yl)-ethyl]-acetamide] |
| 0.25 (≈ 0.508 µM) | 0.031 (≈ 0.063 µM) | 0.25 (≈ 0.508 µM) | 0.25 (≈ 0.508 µM) | 0.125 (≈ 0.254 µM) | O=C(CC1OC(=O)c2cc(-c3cc(F)cc(F)c3)ccc21)NCCn1c(=O)ccc2ccc(F)cc21 (racemic) [Example 11, rac-2-[5-(3,5-Difluoro-phenyl)-3-oxo-1,3-dihydro-isobenzofuran-1-yl]-N-[2-(7-fluoro-2-oxo-2H-quinolin-1-yl)-ethyl]-acetamide] |
| 2 (≈ 4.48 µM) | 0.031 (≈ 0.0694 µM) | 0.25 (≈ 0.56 µM) | 0.25 (≈ 0.56 µM) | 1 (≈ 2.24 µM) | O=C(CC1OC(=O)c2cc(C3=CCCC3)ccc21)NCCn1c(=O)ccc2ccc(F)cc21 (racemic) [Example 12, rac-2-(5-Cyclopent-1-enyl-3-oxo-1,3-dihydro-isobenzofuran-1-yl)-N-[2-(7-fluoro-2-oxo-2H-quinolin-1-yl)-ethyl]-acetamide] |
| 1 (≈ 2.19 µM) | 0.063 (≈ 0.138 µM) | 0.5 (≈ 1.1 µM) | 0.125 (≈ 0.274 µM) | > 8 | O=C1OC(C(=O)NCCCn2c(=O)ccc3ccc(F)cc32)c2ccc(-c3ccccc3)cc21 (racemic) [Example 13, rac-3-Oxo-5-phenyl-1,3-dihydro-isobenzofuran-1-carboxylic acid [3-(7-fluoro-2-oxo-2H-quinolin-1-yl)-propyl]-amide] |
| 0.5 (≈ 1.04 µM) | 0.25 (≈ 0.522 µM) | 0.5 (≈ 1.04 µM) | 1 (≈ 2.09 µM) | 4 (≈ 8.36 µM) | O=C1OC(CCNCCn2c(=O)ccc3ccc(F)cc32)c2ccc(-c3ccc(F)cc3F)cc21 (racemic) [Example 15, rac-1-(2-{2-[5-(2,4-Difluoro-phenyl)-3-oxo-1,3-dihydro-isobenzofuran-1-yl]-ethylamino}-ethyl)-7-fluoro-1H-quinolin-2-one] |
| 0.5 (≈ 1.09 µM) | ≤ 0.016 | 0.25 (≈ 0.543 µM) | 0.063 (≈ 0.137 µM) | 0.5 (≈ 1.09 µM) | O=C(CC1OC(=O)c2cc(C3=CCCCC3)ccc21)NCCn1c(=O)ccc2ccc(F)cc21 (racemic) [Example 16, rac-2-(5-Cyclohex-1-enyl-3-oxo-1,3-dihydro-isobenzofuran-1-yl)-N-[2-(7-fluoro-2-oxo-2H-quinolin-1-yl)-ethyl]-acetamide] |
| 0.5 (≈ 1.15 µM) | ≤ 0.016 | 0.063 (≈ 0.145 µM) | ≤ 0.016 | 0.5 (≈ 1.15 µM) | CC(C)=Cc1ccc2c(c1)C(=O)OC2CC(=O)NCCn1c(=O)ccc2ccc(F)cc21 (racemic) [Example 17, rac-N-[2-(7-Fluoro-2-oxo-2H-quinolin-1-yl)-ethyl]-2-[5-(2-methyl-propenyl)-3-oxo-1,3-dihydro-isobenzofuran-1-yl]-acetamide] |
| 4 (≈ 8.76 µM) | 0.25 (≈ 0.548 µM) | 0.5 (≈ 1.1 µM) | 2 (≈ 4.38 µM) | > 8 | O=C(Cn1c(=O)ccc2ccc(F)cc21)NCCC1OC(=O)c2cc(-c3ccccc3)ccc21 (racemic) [Example 18, rac-2-(7-Fluoro-2-oxo-2H-quinolin-1-yl)-N-[2-(3-oxo-5-phenyl-1,3-dihydro-isobenzofuran-1-yl)-ethyl]-acetamide] |
| 0.5 (≈ 1.02 µM) | 0.063 (≈ 0.128 µM) | 0.25 (≈ 0.508 µM) | 0.125 (≈ 0.254 µM) | 0.25 (≈ 0.508 µM) | O=C(Cn1c(=O)ccc2ccc(F)cc21)NCCC1OC(=O)c2cc(-c3cc(F)ccc3F)ccc21 (racemic) [Example 19, rac-N-{2-[5-(2,5-Difluoro-phenyl)-3-oxo-1,3-dihydro-isobenzofuran-1-yl]-ethyl}-2-(7-fluoro-2-oxo-2H-quinolin-1-yl)-acetamide] |
| 4 (≈ 8.69 µM) | 0.125 (≈ 0.271 µM) | 4 (≈ 8.69 µM) | 0.125 (≈ 0.271 µM) | 2 (≈ 4.34 µM) | O=C1OC(C(=O)NCCCn2c(=O)ccc3ccc(F)cc32)c2ccc(C3=CCCCC3)cc21 (racemic) [Example 21, rac-5-Cyclohex-1-enyl-3-oxo-1,3-dihydro-isobenzofuran-1-carboxylic acid [3-(7-fluoro-2-oxo-2H-quinolin-1-yl)-propyl]-amide] |
| 1 (≈ 2.17 µM) | 0.031 (≈ 0.0673 µM) | 0.5 (≈ 1.09 µM) | 0.125 (≈ 0.271 µM) | 1 (≈ 2.17 µM) | O=C(Cn1c(=O)ccc2ccc(F)cc21)NCCC1OC(=O)c2cc(C3=CCCCC3)ccc21 (racemic) [Example 22, rac-N-[2-(5-Cyclohex-1-enyl-3-oxo-1,3-dihydro-isobenzofuran-1-yl)-ethyl]-2-(7-fluoro-2-oxo-2H-quinolin-1-yl)-acetamide] |
| 4 (≈ 8.96 µM) | 0.25 (≈ 0.56 µM) | 0.5 (≈ 1.12 µM) | 1 (≈ 2.24 µM) | > 8 | O=C(Cn1c(=O)ccc2ccc(F)cc21)NCCC1OC(=O)c2cc(C3=CCCC3)ccc21 (racemic) [Example 23, rac-N-[2-(5-Cyclopent-1-enyl-3-oxo-1,3-dihydro-isobenzofuran-1-yl)-ethyl]-2-(7-fluoro-2-oxo-2H-quinolin-1-yl)-acetamide] |
| 2 (≈ 4.06 µM) | 0.125 (≈ 0.254 µM) | 0.5 (≈ 1.02 µM) | 0.5 (≈ 1.02 µM) | 0.5 (≈ 1.02 µM) | O=C(Cn1c(=O)ccc2ccc(F)cc21)NCCC1OC(=O)c2cc(-c3cc(F)cc(F)c3)ccc21 (racemic) [Example 24, rac-N-{2-[5-(3,5-Difluoro-phenyl)-3-oxo-1,3-dihydro-isobenzofuran-1-yl]-ethyl}-2-(7-fluoro-2-oxo-2H-quinolin-1-yl)-acetamide] |
| 1 (≈ 2.3 µM) | 0.063 (≈ 0.145 µM) | 0.5 (≈ 1.15 µM) | 0.25 (≈ 0.575 µM) | 4 (≈ 9.21 µM) | CC(C)=Cc1ccc2c(c1)C(=O)OC2CCNC(=O)Cn1c(=O)ccc2ccc(F)cc21 (racemic) [Example 25, rac-2-(7-Fluoro-2-oxo-2H-quinolin-1-yl)-N-{2-[5-(2-methyl-propenyl)-3-oxo-1,3-dihydro-isobenzofuran-1-yl]-ethyl}-acetamide] |
